# Experimental data reported in patent US7029840B2 (priority 2000, dated 2006).
# Like-named read-outs stand apart in the source and are kept apart here.
# Assays:
# [1] = tested on: intact cells of N. gonorrhoeae; type: cell-based, N. gonorrhoeae ATCC 19424; conditions: urine, room temperature; for average amplification MOTA values at day 0 versus day 6: 100 mM sodium citrate, sodium fluoride, sodium borate, 5 mM EDTA
# Procedure: (§1) The samples were spiked with cells of N. gonorrhoeae a final concentration 2500 cells/ml. Each sample was incubated for 14 days at room temperature. At specific time points (day 0, 6, and 14), 2.0-ml volumes of each sample (eight replicates) was centrifuged at 2000×g for 30 minutes at room temperature. The supernate was decanted and the cell pellet was resuspended with a 2.0-ml volume of BSA/PBS, and then centrifuged at 2000×g for 30 minutes at room temperature. Again, the supernatant was decanted and the cell pellet was resuspended with a 2.0-ml volume of CT/GC diluent. […] SDA was performed on the cell lysate as described in Example 1.
# Forty-milliliter volumes of negative urine was prepared with 100 mM sodium citrate (final concentration); 5, 10, and 15% (v/v) sucrose (final concentration); 5, 10, and 15% (v/v) PVP (final concentration); 5, 10, and 15 mM magnesium chloride (final concentration); 10 and 100 mM sodium fluoride (final concentration); 10 and 100 mM sodium formate (final concentration); 10 and 100 mM sodium borate (final concentration); 0.5 and 5 mM EDTA (final concentration); 0.5 and 5 mM EGTA (final concentration); and without chemical additive. The samples were spiked with cells of N. gonorrhoeae at a final concentration of 2500 cells/ml. Each sample was incubated for 6 days at room temperature. At specific time points (day 0 and 6), the samples were processed by centrifugation at 2000×g as described in Example 2. […] SDA was performed on the cell lysate as described in Example 1.
# [2] = tested on: intact cells of N. gonorrhoeae; type: cell-based, N. gonorrhoeae ATCC 19424; conditions: for average MOTA values for day 0 versus day 6: 100 mM sodium citrate, sodium fluoride, sodium borate, 5 mM EDTA, urine at 5, 25, 35, and 45° C.; for Average MOTA Value: urine
# Procedure: as §1
# The samples were spiked with cells of N. gonorrhoeae at a final concentration of 2500 cells/ml. Each sample was incubated for 6 days at 5, 25, 35, and 45° C. At specific time points (day 0 and 6), the samples were processed by centrifugation at 2000×g as described in Example 2. […] SDA was performed on the cell lysates as described in Example 1.
# [3] = tested on: N. gonorrhoeae plasmid DNA; assay: Stability of N. gonorrhoeae plasmid DNA in urine, 3 days at room temperature (SDA, MOTA value); type: biochemical, Neisseria gonorrhoeae
# Procedure: The samples were incubated for 3 days at room temperature. […] SDA was performed on the isolated DNA as described in Example 1.
# [4] = tested on: intact cells of N. gonorrhoeae; type: cell-based, N. gonorrhoeae ATCC 19424; conditions: for Average MOTA Value: 10 mM potassium EDTA, urine
# Procedure: as §1
# (§2) i) Potassium EDTA: Seventy-milliliter volumes of pooled negative urine were prepared with 10 mM potassium EDTA (final concentration). The samples were spiked with cells of N. gonorrhoeae at a final concentration of 2000 cells/ml. Each sample was incubated for 14 days at 5, 25, 33, 45, and 60° C. At specific time points (day 0, 6 and 14), the samples were processed by centrifugation at 2000×g as described in Example 3. […] SDA was performed on the cell lysates as described in Example 1.
# as §2, with “ii) DNA/RNA Protect™:” for “i) Potassium EDTA:”, “10% (v/v) DNA/RNA Protect™” for “10 mM potassium EDTA”
# [5] = tested on: N. gonorrhoeae plasmid DNA; conditions: for Average MOTA Value: 60 min room temperature after DNA spike; for protection of N. gonorrhoeae plasmid DNA from degradation in human urine by endogenous nucleases: sodium citrate at 10, 20, and 40 mM, EDTA at 10, 40, 100 mM (so in the source)
# Procedure: Twenty-milliliter volumes of negative pooled urine were prepared with 10, 40, and 100 mM sodium citrate (final concentration); 10, 20, and 40 mM EDTA (final concentration); and without chemical additive. In addition, a 20-ml volume of negative pooled urine was heated for 30 minutes (heated-treated urine). The samples were incubated for 60 minutes at room temperature. After the incubation step, the samples were spiked with N. gonorrhoeae plasmid DNA (2500 DNA copies/ml). The samples were incubated for 60 minutes at room temperature. After the incubation step, two-ml volumes from each sample (eight replicates) were heated for 30 minutes at 114° C. to denature the DNA.
# A 1-ml volume of the 8 replicates as described above was added to ferrosoferric oxide. A 100-ul volume of 6 M glycine HCl was added to each sample. The DNA-ferrosoferric oxide complexes were separated on a magnet and washed two times with a 900-ul volume of 1 mM glycine HCl to reduce the ionic strength and remove nonspecifically bound materials. The DNA was released from the ferrosoferric oxide with 480-ul volume of elution buffer (88.3 mM KOH, 177.8 mM bicine, 12.1% (v/v) glycerol, and 11.0% (v/v) DMSO [final concentration]).
# Strand Displacement Amplification (SDA) was performed according to the manufacturer's instructions (BDProbeTec™ET Chlamydia trachomatis and N. gonorrhoeae Amplified DNA Assay Package Insert L-000203 [November 1999]). A 150-ul volume of each sample was added into a priming microwell. The priming microwell plate was incubated for 20 minutes at room temperature, after which the plate was incubated at 72.5° C. The amplification microwell plate was incubated at 54° C. After 10 minutes, a 100-ul volume from each priming microwell was added into the corresponding amplification microwell. The amplification microwell plate was place in a BD ProbeTec ET instrument. Data was reported as MOTA value (metric other than acceleration).
# [6] = tested on: intact cells of N. gonorrhoeae; assay: Stability of cells of N. gonorrhoeae in urine with sodium citrate, 14 days at room temperature (SDA, MOTA value); type: cell-based, N. gonorrhoeae ATCC 19424; conditions: 100 mM; for Average MOTA Value: urine
# Procedure: as §1
smiles,measurement,setting,value
"[F-].[Na+] [sodium fluoride, Sodium fluoride]",Average MOTA Value,"[1]; 10 mM, Day 0",32162
same,Average MOTA Value,"[1]; 10 mM, Day 6",10894
same,average amplification MOTA values at day 0 versus day 6,[1],not significantly different
same,Average MOTA Value,"[1]; 100 mM, Day 0",26385
same,Average MOTA Value,"[1]; 100 mM, Day 6",24559
same,average MOTA values for day 0 versus day 6,[2],no significant difference
same,Average MOTA Value,"[2]; 100 mM, 5° C., Day 0",43807
same,Average MOTA Value,"[2]; 100 mM, 5° C., Day 6",59543
same,Average MOTA Value,"[2]; 100 mM, 25° C., Day 0",44945
same,Average MOTA Value,"[2]; 100 mM, 25° C., Day 6",47391
same,Average MOTA Value,"[2]; 100 mM, 35° C., Day 0",41608
same,Average MOTA Value,"[2]; 100 mM, 35° C., Day 6",47347
same,Average MOTA Value,"[2]; 100 mM, 45° C., Day 0",45741
same,Average MOTA Value,"[2]; 100 mM, 45° C., Day 6",48043
same,Average MOTA Value,"[3]; 100 mM, Day 0",27811
same,Average MOTA Value,"[3]; 100 mM, Day 3",42689
"O=C(O)CN(CCN(CC(=O)O)CC(=O)O)CC(=O)O [EDTA, Ethylenediaminetetraacetic acid]",Average MOTA Value,"[1]; 0.5 mM, Day 0",35950
same,Average MOTA Value,"[1]; 0.5 mM, Day 6",650
same,Average MOTA Value,"[1]; 5 mM, Day 0",32392
same,Average MOTA Value,"[1]; 5 mM, Day 6",34445
same,average amplification MOTA values at day 0 versus day 6,[1],not significantly different
same,time for which stability of intact cells of N. gonorrhoeae in human urine was maintained,"[4]; 10 mM EDTA, 5, 27, 33, 45, and 60° C.",≥ 14 days
same,Average MOTA Value,"[4]; 5° C., Day 0",26448
same,Average MOTA Value,"[4]; 5° C., Day 6",35234
same,Average MOTA Value,"[4]; 5° C., Day 14",36205
same,Average MOTA Value,"[4]; 27° C., Day 0",26448
same,Average MOTA Value,"[4]; 27° C., Day 6",31619
same,Average MOTA Value,"[4]; 27° C., Day 14",36994
same,Average MOTA Value,"[4]; 33° C., Day 0",26448
same,Average MOTA Value,"[4]; 33° C., Day 6",34252
same,Average MOTA Value,"[4]; 33° C., Day 14",38183
same,Average MOTA Value,"[4]; 45° C., Day 0",26448
same,Average MOTA Value,"[4]; 45° C., Day 6",36132
same,Average MOTA Value,"[4]; 45° C., Day 14",41115
same,Average MOTA Value,"[4]; 60° C., Day 0",26448
same,Average MOTA Value,"[4]; 60° C., Day 6",32218
same,Average MOTA Value,"[4]; 60° C., Day 14",26259
same,Average MOTA Value,"[2]; 5 mM, 5° C., Day 0",50132
same,Average MOTA Value,"[2]; 5 mM, 5° C., Day 6",64610
same,Average MOTA Value,"[2]; 5 mM, 25° C., Day 0",54871
same,Average MOTA Value,"[2]; 5 mM, 25° C., Day 6",66009
same,Average MOTA Value,"[2]; 5 mM, 35° C., Day 0",57077
same,Average MOTA Value,"[2]; 5 mM, 35° C., Day 6",69291
same,Average MOTA Value,"[2]; 5 mM, 45° C., Day 0",62891
same,Average MOTA Value,"[2]; 5 mM, 45° C., Day 6",74667
same,average MOTA values for day 0 versus day 6,[2],no significant difference
same,Average MOTA Value,[5]; 10 mM additive in human urine,16103
same,Average MOTA Value,[5]; 20 mM additive in human urine,16178
same,Average MOTA Value,[5]; 40 mM additive in human urine,20007
same,protection of N. gonorrhoeae plasmid DNA from degradation in human urine by endogenous nucleases,[5],protected N. gonorrhoeae plasmid DNA from degradation
same,Average MOTA Value,"[3]; 10 mM, Day 0",32177
same,Average MOTA Value,"[3]; 10 mM, Day 3",30445
same,Average MOTA Value,"[3]; 20 mM, Day 0",34594
same,Average MOTA Value,"[3]; 20 mM, Day 3",31366
"[Cl-].[Cl-].[Mg+2] [MgCl^2, Magnesium chloride]",Average MOTA Value,"[1]; 5 mM, Day 0",28072
same,Average MOTA Value,"[1]; 5 mM, Day 6",1507
same,Average MOTA Value,"[1]; 10 mM, Day 0",27157
same,Average MOTA Value,"[1]; 10 mM, Day 6",4547
same,Average MOTA Value,"[1]; 15 mM, Day 0",35926
same,Average MOTA Value,"[1]; 15 mM, Day 6",4868
"O=C(O)CN(CCOCCOCCN(CC(=O)O)CC(=O)O)CC(=O)O [EGTA, Ethylenebis(oxyethylenenitrilo) tetraacetic acid]",Average MOTA Value,"[1]; 0.5 mM, Day 0",32611
same,Average MOTA Value,"[1]; 0.5 mM, Day 6",1150
same,Average MOTA Value,"[1]; 5 mM, Day 0",34504
same,Average MOTA Value,"[1]; 5 mM, Day 6",6931
"O=C[O-].[Na+] [sodium formate, Sodium formate]",Average MOTA Value,"[1]; 10 mM, Day 0",34446
same,Average MOTA Value,"[1]; 10 mM, Day 6",2211
same,Average MOTA Value,"[1]; 100 mM, Day 0",29357
same,Average MOTA Value,"[1]; 100 mM, Day 6",2139
"OC[C@H]1O[C@@](CO)(O[C@H]2O[C@H](CO)[C@@H](O)[C@H](O)[C@H]2O)[C@@H](O)[C@@H]1O [sucrose, Sucrose]",Average MOTA Value,"[1]; 5% (v/v), Day 0",28427
same,Average MOTA Value,"[1]; 5% (v/v), Day 6",501
same,Average MOTA Value,"[1]; 10% (v/v), Day 0",29548
same,Average MOTA Value,"[1]; 10% (v/v), Day 6",5555
same,Average MOTA Value,"[1]; 15% (v/v), Day 0",27391
same,Average MOTA Value,"[1]; 15% (v/v), Day 6",8497
"O=C([O-])CC(O)(CC(=O)[O-])C(=O)[O-].[Na+].[Na+].[Na+] [sodium citrate, Sodium citrate, trisodium salt]",average amplification MOTA values at day 0 versus day 6,[1],not significantly different
same,Average MOTA Value,"[1]; 100 mM, Day 0",27310
same,Average MOTA Value,"[1]; 100 mM, Day 6",26394
same,average MOTA values for day 0 versus day 6,[2],no significant difference
same,Average MOTA Value,"[2]; 100 mM, 5° C., Day 0",56773
same,Average MOTA Value,"[2]; 100 mM, 5° C., Day 6",57701
same,Average MOTA Value,"[2]; 100 mM, 25° C., Day 0",59703
same,Average MOTA Value,"[2]; 100 mM, 25° C., Day 6",51791
same,Average MOTA Value,"[2]; 100 mM, 35° C., Day 0",54238
same,Average MOTA Value,"[2]; 100 mM, 35° C., Day 6",51468
same,Average MOTA Value,"[2]; 100 mM, 45° C., Day 0",59944
same,Average MOTA Value,"[2]; 100 mM, 45° C., Day 6",63623
same,Average MOTA Value,[5]; 10 mM additive in human urine,6673
same,Average MOTA Value,[5]; 40 mM additive in human urine,36684
same,Average MOTA Value,[5]; 100 mM additive in human urine,24069
same,protection of N. gonorrhoeae plasmid DNA from degradation in human urine by endogenous nucleases,[5],protected N. gonorrhoeae plasmid DNA from degradation
same,time for which stability of intact cells of N. gonorrhoeae in human urine was maintained,[6],≥ 14 days
same,Average MOTA Value,[6]; Day 0,30200
same,Average MOTA Value,[6]; Day 6,25391
same,Average MOTA Value,[6]; Day 10,27522
same,Average MOTA Value,[6]; Day 14,20953
same,Average MOTA Value,"[3]; 100 mM, Day 0",26852
same,Average MOTA Value,"[3]; 100 mM, Day 3",30978
"O.O.O.O.O.O.O.O.O.O.[Na+].[Na+].[O-]B1OB2OB([O-])OB(O1)O2 [sodium borate, Sodium borate]",Average MOTA Value,"[1]; 10 mM, Day 0",26170
same,Average MOTA Value,"[1]; 10 mM, Day 6",15464
same,average amplification MOTA values at day 0 versus day 6,[1],not significantly different
same,Average MOTA Value,"[1]; 100 mM, Day 0",24607
same,Average MOTA Value,"[1]; 100 mM, Day 6",28908
same,average MOTA values for day 0 versus day 6,[2],no significant difference
same,Average MOTA Value,"[2]; 100 mM, 5° C., Day 0",41940
same,Average MOTA Value,"[2]; 100 mM, 5° C., Day 6",40325
same,Average MOTA Value,"[2]; 100 mM, 25° C., Day 0",49622
same,Average MOTA Value,"[2]; 100 mM, 25° C., Day 6",50745
same,Average MOTA Value,"[2]; 100 mM, 35° C., Day 0",60308
same,Average MOTA Value,"[2]; 100 mM, 35° C., Day 6",60296
same,Average MOTA Value,"[2]; 100 mM, 45° C., Day 0",63343
same,Average MOTA Value,"[2]; 100 mM, 45° C., Day 6",62283
same,Average MOTA Value,"[3]; 100 mM, Day 0",23263
same,Average MOTA Value,"[3]; 100 mM, Day 3",34089
